Marks after values point to notes of the source that are not given here.
Assays:
Type in all cases: in vivo
Septoria tritici = test: Test D: preventive spray on wheat seedlings, visual disease rating (wheat leaf blotch)
Description: (§1) General protocol for preparing test suspensions for Tests A-F: the test compounds were first dissolved in acetone in an amount equal to 3% of the final volume and then suspended at the desired concentration (in ppm) in acetone and purified water (50/50 mix by volume) containing 250 ppm of the surfactant Trem® 014 (polyhydric alcohol esters). The resulting test suspensions were then used in Tests A-F. Spraying a 200 ppm test suspension to the point of run-off on the test plants was the equivalent of a rate of 800 g/ha. Unless otherwise indicated, the rating values indicate a 200 ppm test suspension was used. (An asterisk “*” next to the rating value indicates a 40 ppm test suspension was used.)
The test suspension was sprayed to the point of run-off on wheat seedlings. The following day the seedlings were inoculated with a spore suspension of Septoria tritici (the causal agent of wheat leaf blotch) and incubated in saturated atmosphere at 24° C. for 48 h, and then moved to a growth chamber at 20° C. for 19 days, after which time visual disease ratings were made.
(§2) Results for Tests A-F are given in Table A. In the Table, a rating of 100 indicates 100% disease control and a rating of 0 indicates no disease control (relative to the controls). A dash (-) indicates no test results. An asterisk “*” next to the rating value indicates a 40 ppm test suspension was used.

Botrytis cinerea = test: Test A: preventive spray on tomato seedlings, visual disease rating (tomato Botrytis)
Description: as §1
The test suspension was sprayed to the point of run-off on tomato seedlings. The following day the seedlings were inoculated with a spore suspension of Botrytis cinerea (the causal agent of tomato Botrytis) and incubated in saturated atmosphere at 20° C. for 48 h, and then moved to a growth chamber at 24° C. for 3 days, after which time visual disease ratings were made.
as §2

[1] = tested on: Puccinia recondite f. sp. tritici; test: Test E2: preventive spray on wheat seedlings, visual disease rating (wheat leaf rust)
Description: as §1
The test suspension was sprayed to the point of run-off on wheat seedlings. The following day the seedlings were inoculated with a spore suspension of Puccinia recondite f. sp. tritici (the causal agent of wheat leaf rust) and incubated in a saturated atmosphere at 20° C. for 24 h, and then moved to a growth chamber at 20° C. for 7 days, after which time visual disease ratings were made.
as §2

Septoria nodorum = test: Test C: preventive spray on wheat seedlings, visual disease rating (Septoria glume blotch); details: asterisk: 40 ppm test suspension
Description: as §1
The test suspension was sprayed to the point of run-off on wheat seedlings. The following day the seedlings were inoculated with a spore suspension of Septoria nodorum (the causal agent of Septoria glume blotch) and incubated in a saturated atmosphere at 24° C. for 48 h, and then moved to a growth chamber at 20° C. for 6 days, after which time visual disease ratings were made.
as §2

[2] = tested on: Blumeria graminis f. sp. tritici; test: Test F: preventive spray on wheat seedlings, visual disease rating (wheat powdery mildew)
Description: as §1
The test suspension was sprayed to the point of run-off on wheat seedlings. The following day the seedlings were inoculated with a spore dust of Blumeria graminis f. sp. tritici, (also known as Erysiphe graminis f. sp. tritici, the causal agent of wheat powdery mildew) and incubated in a growth chamber at 20° C. for 8 days, after which time visual disease ratings were made.
as §2

[3] = asterisk: 40 ppm test suspension
[4] = no asterisk: standard test suspension, not 40 ppm
[5] = no asterisk: standard test suspension, not 40 ppm, 100 = 100% disease control, 0 = none

SMILES | Test D rating (% disease control) (Septoria tritici; [3]) | Test A rating (% disease control) (Botrytis cinerea; [3]) | Test E2 rating (% disease control) [1, 3] | Test F rating (% disease control) [2, 3] | Test D rating (% disease control) (Septoria tritici; [4]) [%] | Test A rating (% disease control) (Botrytis cinerea; [5]) [%] | Test E2 rating (% disease control) [1, 4] [%] | Test F rating (% disease control) [2, 4] [%] | further results
COc1ccc(C(O)c2c(OC)nn(C)c2-c2c(F)cccc2Cl)c(F)c1 (stereo not shown) [compound 143] | 100* % | 100* % | 99* % | 98* % | – | – | – | – | Test C rating (% disease control) (Septoria nodorum): 0* %
COc1ccc(C(O)c2c(OC)nn(C)c2-c2c(F)cccc2Cl)c(Cl)c1 (stereo not shown) [compound 142] | 100* % | 100* % | 100* % | 100* % | – | – | – | – | Test C rating (% disease control) (Septoria nodorum): 60* %
COc1nn(C)c(-c2c(F)cc(F)cc2Cl)c1C(O)c1ccc(F)cc1Cl (stereo not shown) [compound 141] | 100* % | 100* % | 99* % | 99* % | – | – | – | – | Test C rating (% disease control) (Septoria nodorum): 97* %
Cn1nc(OC(F)F)c(C(O)c2ccc(F)cc2Cl)c1-c1c(F)cccc1F (stereo not shown) [compound 128] | 100* % | 43* % | 85* % | 56* % | – | – | – | – | Test C rating (% disease control) (Septoria nodorum): 0* %
COc1nn(C)c(-c2c(F)cccc2Cl)c1C(O)c1c(F)ccc(F)c1F (stereo not shown) [compound 145] | 35* % | 26* % | 82* % | 73* % | – | – | – | – | Test C rating (% disease control) (Septoria nodorum): 0* %
COc1nn(C)c(-c2c(F)cccc2Cl)c1C(O)c1ccc(F)cc1C (stereo not shown) [compound 140] | 100* % | 100* % | 99* % | 100* % | – | – | – | – | Test C rating (% disease control) (Septoria nodorum): 99* %
Cc1cc(F)ccc1C(O)c1c(Br)nn(C)c1-c1c(F)cccc1Cl (stereo not shown) [compound 149] | – | – | – | – | 100 | 100 | 100 | 100 | –
CCOc1nn(C)c(-c2c(F)cccc2F)c1C(O)c1ccc(F)cc1Cl (stereo not shown) [compound 127] | – | – | – | – | 100 | 76 | 91 | 99 | –
COc1nn(C)c(-c2c(F)cccc2F)c1C(O)c1ccc(F)cc1C (stereo not drawn) [Compound 157, 5-(2,6-difluorophenyl)-α-(4-fluoro-2-methylphenyl)-3-methoxy-1-methyl-1H-pyrazole-4-methanol] | – | – | – | – | – | – | – | – | pest or weed control at 40 ppm (Septoria tritici; Zymoseptoria tritici, 504 h, asterisk: 40 ppm test suspension): 100%; pest or weed control at 40 ppm (Botrytis cinerea; Botrytis cinerea, 120 h, asterisk: 40 ppm test suspension): 100%; pest or weed control at 40 ppm ([1]; 192 h, asterisk: 40 ppm test suspension): 100%; pest or weed control at 40 ppm ([2]; Blumeria graminis, 192 h, asterisk: 40 ppm test suspension): 100%
Cc1nn(C)c(-c2c(F)cccc2Br)c1C(O)c1ccc(F)cc1Cl (stereo not shown) [compound 94] | – | – | – | – | 100 | 99 | 100 | 100 | –
Cn1nc(Br)c(C(O)c2ccc(F)cc2F)c1-c1c(F)cccc1Cl (stereo not shown) [compound 131] | – | – | – | – | 100 | 98 | 100 | 98 | –
Cc1nn(C)c(-c2c(F)cccc2F)c1C(SC#N)c1ccc(F)cc1F (stereo not shown) [Compound 115] | 100* % | 88* % | 94* % | 99* % | – | – | – | – | –
Cc1nn(C)c(-c2ccc(F)cc2Br)c1C(O)c1ccc(F)cc1Cl (stereo not shown) [compound 95] | 99* % | 94* % | 98* % | 95* % | – | – | – | – | –
Cc1cc(F)ccc1C(O)c1c(C)nn(C)c1-n1ccnc1C (stereo not shown) [compound 147] | 0* % | 0* % | 17* % | 0* % | – | – | – | – | –
Cc1nn(C)c(-c2c(F)cc(C#N)cc2F)c1C(O)c1ccc(F)cc1F (stereo not shown) [compound 112] | – | – | – | – | 100 | 80 | 100 | 97 | –
Cc1nn(C)c(-n2ccnc2Cl)c1C(O)c1ccc(F)cc1F (stereo not shown) [compound 151] | – | – | – | – | 0 | 16 | 99 | 43 | –
Cn1nc(Br)c(C(O)c2ccc(F)cc2F)c1-c1c(F)cccc1F (stereo not shown) [compound 124] | – | – | – | – | 100 | 99 | 100 | 100 | –
COc1cc(F)c(-c2c(C(O)c3ccc(F)cc3Cl)c(C)nn2C)c(F)c1 (stereo not shown) [compound 171] | 100* % | 100* % | 100* % | 89* % | – | – | – | – | –
Cc1nn(C)c(-c2c(F)cccc2Cl)c1C(SC#N)c1ccc(F)cc1F (stereo not shown) [Compound 122] | 100* % | 98* % | 100* % | 99* % | – | – | – | – | –
Cc1nn(C)c(-c2c(F)cccc2F)c1C(SC#N)c1c(F)cc(F)cc1F (stereo not shown) [Compound 116] | 78* % | 0* % | 9* % | 0* % | – | – | – | – | –
CC(=O)OC(c1ccc(F)cc1Cl)c1c(C)nn(C)c1-c1c(F)cccc1F (stereo not shown) [Compound 108] | 100* % | 99* % | 100* % | 100* % | – | – | – | – | –
Cn1nc(Br)c(C(O)c2ccc(Cl)cc2Cl)c1-c1c(F)cccc1F (stereo not shown) [compound 163] | – | – | – | – | 100 | 100 | 100 | 98 | –

From US8754115B2, “Fungicidal pyrazoles” (E I du Pont de Nemours and Company, priority 2010, dated 2014)
